Measured values as given in US10278943B2, “Method of treating hyperglycemia” (Center Laboratories, Inc., priority 2016, dated 2019).

Columns and labels:
Format in all cases: in vivo
[1] = tested on: STZ-induced diabetic mice; experiment: Blood glucose level in STZ-induced diabetic mice (Example 1.1)
Description: Wide-type male C57BL/6 mice were rendered diabetic by multiple intraperitoneal injection of streptozotocin (STZ, 40 mg/Kg/day for 5 days, day 1 to day 5). […] For animals treated with insulin, insulin was administered subcutaneously 90 minutes before blood glucose measurement. Non-fasting blood glucose level was measured on days 6, 15, and 25, whereas fasting blood glucose (i.e., blood glucose level after fasting for 12 hrs fasting) was measured on days 40 and 50.
Results are illustrated in FIG. 1.

NIDDM mice [2] = experiment: Fasting blood glucose level in NIDDM (db/db) mice, R-VPM and/or metformin, 42 days (Example 2.1); details: for blood glucose level, % of day 0: 6-hr fasting; for reduction of blood glucose level compared with the vehicle group: metformin 300 mg/Kg; for effect on blood glucose level on its own: low dose, 15 mg/Kg, HCl
Description: (§1) NIDDM mice and db/m+ mice (the sham control) were acclimated at least one week and then grouped for treatment when the average blood glucose value was ≥350 mg/dl after 6-hr fasting. […] Blood glucose and glycated haemoglobin (HbA1c) levels were measured on designated days after 6-hr fasting. Body weight of each test animal was also measured during the study period.
(§2) For comparison, a group of 8 db/m+ (C57BLKS/J Lar-m+/+Lepr^db) mice were used as the sham control. Levels of blood glucose and HbA1c were respectively measured on day 0 (before treatment), and on day 15, 29 and 43 in the 6-hr fasting animals.
In Table 1, blood glucose level in each treatment group was expressed as % of the control, which was the blood glucose level on day 0 and was taken to be 100%.

NIDDM mice [3] = experiment: Fasting blood glucose level in NIDDM (db/db) mice, 44 days treatment (Example 1.2)
Description: as §1
For comparison, a group of 5 db/m+ (C57BLKS/J Lar-m+/+Lepr^db) mice were used as the sham control. Blood glucose levels were measured on day 0 (before treatment), and on days 15, 30, and 45 in the 6-hr fasting animals. Results are illustrated in FIG. 2.

NIDDM mice [4] = experiment: Glycated haemoglobin (HbA1c) level in NIDDM (db/db) mice, R-VPM and/or metformin (Example 2.2); details: for C = B − A, HbA1c level minus vehicle / HbA1c level relative to day 0 = 100: metformin 300 mg/Kg once daily
Description: as §1, §2
Another common indicator, glycated haemolglobin (HbA1c), which reflects average blood glucose levels over a duration was also measured in the present study. HbA1c develops when haemolglobin, a protein within red blood cells that carries oxygen throughout the body joins with glucose in the blood and becomes “glycated.” Since red blood cells in a human body survive for about 8-12 weeks before renewal, thus, the level of HbA1c gives an overall picture of average blood sugar levels over such period.

[5] = metformin 300 mg/Kg once daily, day 15
[6] = metformin 300 mg/Kg once daily, day 29
[7] = metformin 300 mg/Kg once daily, day 43

## insulin [reference compound]
[1]; insulin subcutaneously 90 minutes before measurement
  effect on level of non-fasting or fasting blood glucose (FIG. 1): capable of reducing

## CN(C)C(=N)N=C(N)N [metformin, reference compound]
NIDDM mice [2]; [5]
  C = B − A, blood glucose level minus vehicle: −31.8%
  blood glucose level, % of day 0: 65.3%
NIDDM mice [2]; [6]
  C = B − A, blood glucose level minus vehicle: −12.8%
  blood glucose level, % of day 0: 103.6%
NIDDM mice [2]; [7]
  C = B − A, blood glucose level minus vehicle: −12.8%
  blood glucose level, % of day 0: 108.8%
NIDDM mice [2]; day 15
  reduction of blood glucose level compared with the vehicle group: about 31.8%
NIDDM mice [2]; day 29
  reduction of blood glucose level compared with the vehicle group: ~12.8%
NIDDM mice [2]; day 43
  reduction of blood glucose level compared with the vehicle group: ~12.8%
NIDDM mice [2]; metformin, days 15, 29 and 43
  effect on blood glucose levels (FIG. 3): could reduce the blood glucose levels
NIDDM mice [3]; metformin 300 mg/Kg
  effect on level of fasting blood glucose (FIG. 2): reduced the level of fasting blood glucose
NIDDM mice [4]; metformin
  effect on HbA1c level (FIG. 4): significantly reduce HbA1c level
NIDDM mice [4]; day 15
  C = B − A, HbA1c level minus vehicle: −5.5
  HbA1c level relative to day 0 = 100: 114.7
NIDDM mice [4]; day 29
  C = B − A, HbA1c level minus vehicle: −2.5
  HbA1c level relative to day 0 = 100: 124.9
NIDDM mice [4]; day 43
  C = B − A, HbA1c level minus vehicle: −3
  HbA1c level relative to day 0 = 100: 133

## COc1ccc(CCN(C)CCC[C@@](C#N)(c2ccc(OC)c(OC)c2)C(C)C)cc1OC.Cl [S-VPM, (S)-(−)-verapamil HCl]
NIDDM mice [3]; dose not printed in the sentence (bid)
  effect on reduction of fasting blood glucose level (FIG. 2): neither racemic verapamil HCl (30 mg/Kg, bid) nor (S)-(−)-verapamil HCl, possessed any effect

## COc1ccc(CCN(C)CCC[C@](C#N)(c2ccc(OC)c(OC)c2)C(C)C)cc1OC.Cl [R-VMP, (R)-(+)-verapamil HCl]
NIDDM mice [2]; R-VMP 15 mg/Kg, bid, day 15
  E = D − A, blood glucose level minus vehicle: 2.3%
  blood glucose level, % of day 0: 99.4%
NIDDM mice [2]; R-VMP 15 mg/Kg, bid, day 29
  E = D − A, blood glucose level minus vehicle: 5.2%
  blood glucose level, % of day 0: 121.6%
NIDDM mice [2]; R-VMP 15 mg/Kg, bid, day 43
  E = D − A, blood glucose level minus vehicle: −6.6%
  blood glucose level, % of day 0: 115%
NIDDM mice [2]; R-VMP 30 mg/Kg, bid, day 15
  E = D − A, blood glucose level minus vehicle: −9.4%
  blood glucose level, % of day 0: 87.7%
NIDDM mice [2]; R-VMP 30 mg/Kg, bid, day 29
  E = D − A, blood glucose level minus vehicle: −12.9%
  blood glucose level, % of day 0: 103.5%
NIDDM mice [2]; R-VMP 30 mg/Kg, bid, day 43
  E = D − A, blood glucose level minus vehicle: −21.9%
  blood glucose level, % of day 0: 99.7%
NIDDM mice [2]; R-VMP 50 mg/Kg, bid, day 15
  E = D − A, blood glucose level minus vehicle: −14.8%
  blood glucose level, % of day 0: 82.3%
NIDDM mice [2]; R-VMP 50 mg/Kg, bid, day 29
  E = D − A, blood glucose level minus vehicle: −22%
  blood glucose level, % of day 0: 94.4%
NIDDM mice [2]; R-VMP 50 mg/Kg, bid, day 43
  E = D − A, blood glucose level minus vehicle: −22.9%
  blood glucose level, % of day 0: 98.7%
NIDDM mice [2]; higher dose, 30 or 50 mg/Kg, bid
  effect on blood glucose levels (FIG. 3): could reduce the blood glucose levels
NIDDM mice [2]; bid
  effect on blood glucose level on its own: possessed no treatment effect
NIDDM mice [2]; bid, listed as R-VPM
  effect on blood glucose level on its own: ineffective
[1]; oral, bid, fasting 12 hrs, days 40 and 50
  potency in reducing the level of fasting blood glucose, compared between enantiomers (FIG. 1): relatively more potent than (S)-(−)-verapamil HCl
[1]; taken together of the findings in the working examples
  dose at which the compound alone is effective in reducing blood glucose level: ≥ 25 mg/Kg, bid
NIDDM mice [3]; 50 and 75 mg/Kg, bid
  effect on fasting blood glucose level compared with control vehicle NIDDM mice (FIG. 2): reduced the fasting blood glucose level
NIDDM mice [4]; 15 mg/Kg, bid
  effect on HbA1c level (FIG. 4): no effect
NIDDM mice [4]; 30 mg/Kg, bid
  effect on HbA1c level (FIG. 4): mild reduction
NIDDM mice [4]; R-VMP 15 mg/Kg, bid, day 15
  E = D − A, HbA1c level minus vehicle: −2.5
NIDDM mice [4]; R-VMP 15 mg/Kg, bid, day 29
  E = D − A, HbA1c level minus vehicle: 0.9
NIDDM mice [4]; R-VMP 15 mg/Kg, bid, day 43
  E = D − A, HbA1c level minus vehicle: −3.8
NIDDM mice [4]; R-VMP 30 mg/Kg, bid, day 15
  E = D − A, HbA1c level minus vehicle: −1
NIDDM mice [4]; R-VMP 30 mg/Kg, bid, day 29
  E = D − A, HbA1c level minus vehicle: 0.1
NIDDM mice [4]; R-VMP 30 mg/Kg, bid, day 43
  E = D − A, HbA1c level minus vehicle: −12.8
NIDDM mice [4]; R-VMP 50 mg/Kg, bid, day 15
  E = D − A, HbA1c level minus vehicle: −4.5
NIDDM mice [4]; R-VMP 50 mg/Kg, bid, day 29
  E = D − A, HbA1c level minus vehicle: −3.7
NIDDM mice [4]; R-VMP 50 mg/Kg, bid, day 43
  E = D − A, HbA1c level minus vehicle: −10.5

## COc1ccc(CCN(C)CCCC(C#N)(c2ccc(OC)c(OC)c2)C(C)C)cc1OC (racemic) [VPM, 2-(3,4-dimethoxyphenyl)-5-[2-(3,4-dimethoxyphenyl)ethylmethylamino]-2-propan-2-ylpentanenitrile, reference compound]
[1]; 25 or 35 mg/Kg, bid, oral
  effect on fasting or non-fasting blood glucose level (FIG. 1): had no effects
NIDDM mice [3]; 30 mg/Kg, bid
  effect on reduction of fasting blood glucose level (FIG. 2): neither racemic verapamil HCl (30 mg/Kg, bid) nor (S)-(−)-verapamil HCl, possessed any effect
